≈ marks a conversion by molar mass, not a printed value. Like-named read-outs stand apart in the source and are kept apart here. Positions of bridges follow the written chain, without caps; N, C: chain ends. Non-standard residues stand in square brackets, D forms with d. Residues, ends and D or L forms follow the SMILES beside them. Lys(N3) = [N-]=[N+]=NCCCC[C@H](N)C(=O)O; Gla = N[C@@H](CC(C(=O)O)C(=O)O)C(=O)O; R8 = C=CCCCCCC[C@@](C)(N)C(=O)O; Cba = N[C@@H](CC1CCC1)C(=O)O; S5 = C=CCCC[C@](C)(N)C(=O)O; Ahx = NCCCCCC(=O)O; βAla = NCCC(=O)O
Columns and labels:
[1] = system: Jump-In T-REx CHO-K1 BLA cells; test: cells; type: cell-based; settings: for EC50: read-out: TETCHO: Counterscreen EC50
[2] = system: p53 responsive β-lactamase reporter in HCT116 cells; test: cells; type: cell-based; settings: 0% FBS 4Hr; read-out: p53 reporter assay EC50
In short: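 Read-out used the ToxBLAzer Dual Screen for β-lactamase driven by a stably integrated p53-responsive reporter. Assay: 8000 HCT116 cells per well at 0.5% final DMSO. Reported numbers are geometric means over a minimum of three biological replicates.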

[3] = Lactate dehydrogenase (LDH) release assay; type: cell-based
In short: (§1)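 HCT116 cells stably carrying a p53-responsive β-lactamase reporter were seeded at 8000 cells per well with a final DMSO level of 0.5%. Membrane integrity was assessed by lactate dehydrogenase release using a homogeneous fluorometric kit. Values are geometric means of at least three biological replicates.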

[4] = Experimental LogD (partition coefficient); settings: not stated, Partition Coeff LogD
[5] = system: cells transiently transfected with the NanoLuc-HaloTag vector; test: Nanoclick permeability assay
In short: (§2)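 Azido-peptide permeability was read as loss of NanoBRET signal (donor 450 nm, acceptor 610 nm) after adding NanoBret618-azide at 10 μM final.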

[6] = in vitro
In short: as §2

[7] = Solubility assay (kinetic solubility, PBS pH 7); type: physicochemical
In short: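 Values derive from peak-area ratios of sample versus a 100 µM standard, scaled by that standard's concentration.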

[8] = molecular target: T1, human Mdm2 1–125 (Homo sapiens, UniProt Q00987); test: Mdm2 binding by competitive fluorescence anisotropy assay (FP binding); settings: Binding KD
T1 construct: GST (N); His6 (internal); TEV cleavage site (ENLYFQG) (internal); made in house; host or cells: BL21 (DE3) Rosetta T1R Escherichia coli
Source text: The TEV (tobacco etch virus) cleavage site was changed from ENLYFQS to ENLYFQG to give a fusion protein with the following sequence:
[P] is the protein concentration (Mdm2), [L] is the labeled peptide concentration, r is the anisotropy measured, r0 is the anisotropy of the free peptide, rb is the anisotropy of the Mdm2–FAM-labeled peptide complex, Kd is the dissociation constant, [L]t is the total FAM labeled peptide concentration, and [P]t is the total Mdm2 concentration. […] This value was then used to determine apparent Kd values of the respective competing ligands in subsequent competition assays in fluorescence anisotropy experiments.
The competing molecules were then titrated against the complex of the FAM-labeled peptide and protein. Apparent Kd values were determined by fitting the experimental data to equations shown below:2 r=ro+(rb−ro)×2(d^2−3e)cos(θ/3)−9/3Kd1+2(d^2−3e)cos(θ/3)−d 3 d=Kd1+Kd2+[L]st+[L]t−Pt 4 e=Lt−PtKd1+Lst+PtKd2+Kd1Kd2 5 f=−Kd1Kd2[P]t 6 θ=arcos−2d^3+9de−27f/2(d^2−3e)^3
[L]st and [L]t denote labeled ligand and total unlabeled ligand input concentrations, respectively. Kd2 is the dissociation constant of the interaction between the unlabeled ligand and the protein. In all competition experiments, it is assumed that [P]t > [L]st, otherwise considerable amounts of free labeled ligand would always be present and would interfere with measurements. […] The FAM-labeled peptide was dissolved in dimethyl sulfoxide (DMSO) at 1 mM and diluted into experimental buffer. Readings were carried out with an Envision Multilabel Reader (PerkinElmer). […] Curve-fitting was carried out using Prism 4.0 (GraphPad). […] Negative control titrations of the ligands under investigation were also carried out with the fluorescently labeled peptide (in the absence of Mdm2) to ensure no interactions were occurring between the ligands and the FAM-labeled peptide. […] Measurements were taken a minimum of three times (biological replicates) and values are reported as geometric means of the replicates.

[9] = system: HCT116 cells; test: Lactate dehydrogenase (LDH) release assay; type: cell-based
In short: as §1

[10] = EPSA; type: physicochemical; settings: EPSA
[11] = system: CellSensor p53RE-bla HCT-116 Cell Line; settings: read-out: Proliferation EC50 HCT116 (On-target); HCT116
In short: (§3)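 Compound dilution series (10 points, 3-fold, 10 mM top stock in DMSO) tested on overnight-plated Ca Ski cells in RPMI1640/10% FBS and on blasticidin-selected p53RE-bla HCT-116 cells in McCoy's 5A; read-out was CellTiter-Glo 2.0 luminescence after room-temperature equilibration.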

[12] = system: Ca Ski cell line; settings: Ca Ski
In short: as §3

[13] = pH 7, aqueous buffer, kinetic from dmso stock, pH 7, PBS, read-out: Solubility

T1 sequence (Q00987 with tags, fused parts or gaps): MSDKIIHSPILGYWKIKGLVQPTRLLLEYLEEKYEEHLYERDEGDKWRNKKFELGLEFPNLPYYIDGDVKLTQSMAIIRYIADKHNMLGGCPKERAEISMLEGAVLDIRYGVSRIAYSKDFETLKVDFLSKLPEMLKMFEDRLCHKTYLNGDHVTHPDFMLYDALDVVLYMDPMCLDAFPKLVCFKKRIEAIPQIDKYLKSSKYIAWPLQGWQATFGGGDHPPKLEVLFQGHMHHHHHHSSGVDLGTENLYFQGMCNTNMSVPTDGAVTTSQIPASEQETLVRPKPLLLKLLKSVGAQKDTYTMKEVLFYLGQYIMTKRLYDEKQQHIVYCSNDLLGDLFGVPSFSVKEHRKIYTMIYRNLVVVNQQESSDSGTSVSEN

In the case of `CC(=O)N[C@@H](CCC(=O)O)C(=O)N[C@@H](CCC(=O)O)C(=O)N[C@@H](CCC(=O)O)C(=O)N[C@@H](CCCCN=[N+]=[N-])C(=O)NCCCCCC(=O)N[C@H](C(=O)N[C@@H](CO)C(=O)N[C@@H](Cc1ccccc1)C(=O)N[C@]1(C)CCCCCCC=CCCC[C@@](C)(C(N)=O)NC(=O)[C@H](CC(C)C)NC(=O)[C@H](CC(C)C)NC(=O)[C@H](C)NC(=O)[C@H](Cc2c[nH]c3ccccc23)NC(=O)[C@H](Cc2c[nH]c3ccccc23)NC(=O)[C@H](Cc2ccc(O)cc2)NC(=O)[C@H](CCC(=O)O)NC1=O)[C@@H](C)O` [MP-9662] (Ac-EEE[Lys(N3)][Ahx]TSF[R8]EYWWALL[S5]-NH2; staple 9-17), the “TETCHO: Counterscreen % Effect” value ([1]; 0% FBS 4Hr) is reported as 0.684%, the EC50 ([1]; 0% FBS 4Hr) is reported as over 50.6 µM and the “TETCHO: Counterscreen % Effect” value ([1]; 0% FBS 16Hr) is reported as 0.2782%. It also gave an EC50 ([1]; 0% FBS 16Hr) of over 50 µM, an EC50 [2] of over 50 µM and an EC50 ([3]; LDH: Cytotoxicity assay EC50) of over 50 µM. For the same compound, the logD [4] was 1.86, the “Nanoclick permeability assay % Effect” value ([5]; 4Hr) was 111.3% and the cell entry EC50 ([6]; Nanoclick permeability assay EC50) was 0.637 µM. For the same compound, the solubility kinetic [7, 13] was 33 µM (≈ 76 µg/mL).

With `CC(=O)N[C@@H](CCCCN=[N+]=[N-])C(=O)NCCC(=O)N[C@@H](CC(C)C)C(=O)N[C@H](C(=O)N[C@@H](Cc1ccccc1)C(=O)N[C@]1(C)CCCCCCC=CCCC[C@@](C)(C(=O)N[C@@H](CO)C(=O)N[C@@H](C)C(=O)N[C@@H](C)C(N)=O)NC(=O)[C@H](CC2CCC2)NC(=O)[C@H](CCC(N)=O)NC(=O)[C@H](C)NC(=O)[C@H](CCC(=O)O)NC(=O)[C@H](Cc2ccc(O)cc2)NC(=O)[C@H](CCC(=O)O)NC1=O)[C@@H](C)O` [Peptide W7E] the “shift of NanoClick permeability vs MP-081” value ([5]; Glu scan) was ~ 34 x.

For `CC(=O)N[C@@H](CCCCN=[N+]=[N-])C(=O)NCCC(=O)N[C@@H](CC(C)C)C(=O)N[C@H](C(=O)N[C@@H](Cc1ccccc1)C(=O)N[C@]1(C)CCCCCCC=CCCC[C@@](C)(C(=O)N[C@@H](CC(C(=O)O)C(=O)O)C(=O)N[C@@H](C)C(=O)N[C@@H](C)C(=O)N[C@@H](C)C(=O)N[C@@H](C)C(=O)N[C@H](C)C(N)=O)NC(=O)[C@H](CC2CCC2)NC(=O)[C@H](CCC(N)=O)NC(=O)[C@H](C)NC(=O)[C@H](Cc2c[nH]c3ccccc23)NC(=O)[C@H](Cc2ccc(O)cc2)NC(=O)[C@H](CCC(=O)O)NC1=O)[C@@H](C)O` [MP-897] (Ac-[Lys(N3)][βAla]LTF[R8]EYWAQ[Cba][S5][Gla]AAAA[dA]-NH2; staple 6-13), the Kd [8] was under 0.001 µM, the “LDH: Cytotoxicity assay: % Effect” value ([9]; 0% FBS 4Hr) was 6.465% and the “LDH: Cytotoxicity assay: % Effect” value ([9]; 10% FBS 16Hr) was 20.53%. It also gave an EC50 ([3]; 0% FBS 4Hr, read-out: LDH: Cytotoxicity assay: EC50) of over 50.7 µM, an EC50 ([3]; 10% FBS 16Hr, read-out: LDH: Cytotoxicity assay: EC50) of over 50.7 µM and an EPSA [10] of 257 A^2. It also gave a logD [4] of 2.25, a cell entry EC50 [6] of 2.27 µM and a solubility kinetic [7, 13] of 163 µM (≈ 370 µg/mL). The EC50 [11] was 0.79 µM, the “Proliferation % inhibition at 50 µM Ca Ski” value ([12]; 50 µM) was -19.1% and the EC50 ([12]; read-out: Proliferation EC50 Ca Ski (Off-target)) was over 49.8 µM.

Compound `CC(=O)N[C@@H](CCCCN=[N+]=[N-])C(=O)NCCC(=O)N[C@@H](CC(C)C)C(=O)N[C@H](C(=O)N[C@@H](Cc1ccccc1)C(=O)N[C@]1(C)CCCCCCC=CCCC[C@@](C)(C(=O)N[C@@H](CCO)C(=O)N[C@@H](CCO)C(=O)N[C@@H](Cc2ccccc2)C(=O)N[C@@H](CCO)C(=O)N[C@@H](CCO)C(=O)N[C@@H](Cc2ccccc2)C(N)=O)NC(=O)[C@H](CC2CCC2)NC(=O)[C@H](CCC(N)=O)NC(=O)[C@H](C)NC(=O)[C@H](Cc2c[nH]c3ccccc23)NC(=O)[C@H](Cc2ccc(O)cc2)NC(=O)[C@H](CCC(=O)O)NC1=O)[C@@H](C)O` [MP-803] has a cell entry EC50 ([5]; 4 h) of 6.86 µM and a solubility kinetic ([7]; pH 7, Solubility) of 1 µM (≈ 2.44 µg/mL).
